Read-outs that look alike come from different tables or passages of the source. Values belong to the molecule of their own block, whether it stands above or below them. Numbered stars: 1 amine (or outer) side, 2 acyl side, 3 side chain; on linkers, the order of the positions; unused ones are H or OH. Bridge positions count the residues as written; N and C are the ends. Side chains are listed from the residue outwards. Peptide text beside a SMILES is read from it. * marks the point of attachment. C20 diacid = O=C(O)CCCCCCCCCCCCCCCCCCC(=O)*; γGlu = O=C(O)[C@H](CCC(=O)[*:2])N[*:1]
Legend:
hCTR = target: T1, hCTR (Homo sapiens, UniProt P30988); assay: cAMP-responsive element luciferase reporter assay, human CTR; format: cell-based; settings: luciferase (human receptor assay)
T1 sequence (P30988 25-474): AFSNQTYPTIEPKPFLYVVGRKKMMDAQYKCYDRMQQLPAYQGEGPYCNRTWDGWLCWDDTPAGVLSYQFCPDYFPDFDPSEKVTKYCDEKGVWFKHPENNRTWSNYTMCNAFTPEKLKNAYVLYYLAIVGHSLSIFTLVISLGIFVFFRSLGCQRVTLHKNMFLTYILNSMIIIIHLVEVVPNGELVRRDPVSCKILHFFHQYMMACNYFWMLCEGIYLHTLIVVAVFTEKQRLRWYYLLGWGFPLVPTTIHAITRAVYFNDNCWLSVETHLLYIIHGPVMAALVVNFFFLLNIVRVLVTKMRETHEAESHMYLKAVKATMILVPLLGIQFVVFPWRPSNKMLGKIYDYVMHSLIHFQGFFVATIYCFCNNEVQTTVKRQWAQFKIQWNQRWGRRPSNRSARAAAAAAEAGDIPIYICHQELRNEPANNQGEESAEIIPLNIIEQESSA

rat AMY3R = target: T2, rat AMY3R (Rattus norvegicus, UniProt P32214+Q9JJ73); assay: cAMP FlashPlate assay, rat AMY3R; format: cell-based; settings: for EC50: cAMP (rat receptor assay)
T2 construct: expressed in transfected cells; host or cells: BHK tk-ts 13, transient co-transfection (FuGENE 6)
T2 sequence (P32214 25-479 isoform P32214-2 limits assumed): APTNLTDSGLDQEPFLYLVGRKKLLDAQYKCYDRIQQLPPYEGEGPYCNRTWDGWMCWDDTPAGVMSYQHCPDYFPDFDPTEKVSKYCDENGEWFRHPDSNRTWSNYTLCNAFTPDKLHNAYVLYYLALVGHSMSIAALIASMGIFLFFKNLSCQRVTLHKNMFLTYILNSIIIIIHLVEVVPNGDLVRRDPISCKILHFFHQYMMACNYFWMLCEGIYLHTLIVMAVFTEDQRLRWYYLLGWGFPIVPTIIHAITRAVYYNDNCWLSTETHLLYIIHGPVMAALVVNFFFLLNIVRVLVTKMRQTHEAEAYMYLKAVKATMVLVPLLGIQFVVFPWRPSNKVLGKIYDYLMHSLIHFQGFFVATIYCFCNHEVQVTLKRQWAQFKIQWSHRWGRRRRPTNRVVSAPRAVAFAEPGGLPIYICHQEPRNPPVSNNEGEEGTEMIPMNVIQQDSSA
T2 sequence (Q9JJ73 23-147 partner): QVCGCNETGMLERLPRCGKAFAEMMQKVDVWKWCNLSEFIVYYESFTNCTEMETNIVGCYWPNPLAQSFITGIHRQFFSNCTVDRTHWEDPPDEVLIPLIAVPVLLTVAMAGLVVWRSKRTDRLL

rat CTR = target: T3, rat CTR (Rattus norvegicus, UniProt P32214); assay: cAMP FlashPlate assay, rat CTR; format: cell-based; settings: cAMP (rat receptor assay)
T3 construct: expressed in transfected cells; host or cells: BHK tk-ts 13, transient (FuGENE 6)
T3 sequence (P32214 25-479 isoform P32214-2 limits assumed): T2 sequence (P32214 25-479 isoform P32214-2 limits assumed)

[1] = Solubility versus pH profile
[2] = ThT assay: fibril formation propensity and peptide recovery; format: physicochemical
Procedure: The stability properties of the individual amylin analogs were assessed with respect to their propensity toward fibril formation, expressed as the time until fibril formation (measured as Lag time) and loss of dissolved peptide (assessed as Peptide Recovery). […] Samples were prepared as described previously (using the same methodology and materials) for a novel amylin-based analog candidate compound.[7]
Briefly, each compound was dissolved in 10 mM of glycylglycine buffer (pH 4.0) or HEPES buffer (pH 7.5) to a concentration of 250 μM, followed by ThT stock solution to a final concentration of 1 μM. Each solution was aliquoted into a microtiter plate (200 μL/well) sealed with a transparent adhesive sheet. Mechanical stress was applied at 37 °C incubation (960 rpm, 1 mm amplitude) with 20 min fluorescence reading intervals for 45 h (filters: excitation 444 nm; emission 485 nm). Each peptide was tested in experiments consisting of four replicas (e.g., four wells on the same plate), and the lag time of each replica was determined by visual inspection of the fluorescence-versus-time plot. For wells where no fibril formation could be detected, the lag time was set longer than the test period (>45 h). The lag time of the peptide was set to the lowest lag time of the four replicates (conservative estimate). Some of the peptides were tested in more than one experiment, and the lag time results given in Tables 6 and 9 represent the average of these experiments. The ThT time course data given in Supporting Information represent the average and SEM of each experiment.[40] After analysis, wells representing individual replicas were pooled, and the residual soluble peptide was isolated using centrifugation (20,000 g/30 min at room temperature) followed by […] filtration. The amount of residual dissolved peptide was determined using an HPLC with a flow rate of 2 mL/min at 30 °C and 215/276 nm detection. A gradient combining eluent A (7.7% w/w acetonitrile, 200 mM Na2SO4, 20 mM NaH2PO4, 20 mM Na2HPO4, pH 7.2) and eluent B (65.5% w/w acetonitrile) was applied. The amount of residual dissolved peptide was reported on a relative scale (Peptide Recovery) to the amount of dissolved peptide prior to mechanical stress.

[3] = HMWP content by size-exclusion chromatography; format: physicochemical; settings: analogs 1–9 (pH 7.5 series); covalent dimers and polymers prior to fibril formation testing, SEC, % of total absorbance area at 215 nm
Procedure: The stability properties of the individual amylin analogs were assessed with respect to their propensity toward amyloid fibril formation. The relative amount of covalent dimers and polymers (HMWP) present prior to fibril formation testing was measured as a control for the potential inhibitory effect of HMWP on fibril formation propensity as reported elsewhere.[39]
Elution was performed under isocratic conditions with the following mobile phase prepared in Milli-Q water (Millipore A/S): 0.5 M NaCl, 10 mM sodium dihydrogen monohydrate, 5 mM ortho-phosphoric acid, 50% (v/v) 2-propanol. The amount of HMWP was determined as the absorbance area of the corresponding peaks given in percentage of the total absorbance area. The molar extinction coefficients of the molecules eluting in the HMWP fraction and the main peak was assumed to be equal.

hAMY3R = target: T4, hAMY3R (Homo sapiens, UniProt O60896+P30988); assay: cAMP-responsive element luciferase reporter assay, human AMY3R; format: cell-based; design: expressed in transfected cells; settings: for EC50: luciferase (human receptor assay)
T4 sequence (P30988 25-474): T1 sequence (P30988 25-474)
T4 sequence (O60896 24-148 partner): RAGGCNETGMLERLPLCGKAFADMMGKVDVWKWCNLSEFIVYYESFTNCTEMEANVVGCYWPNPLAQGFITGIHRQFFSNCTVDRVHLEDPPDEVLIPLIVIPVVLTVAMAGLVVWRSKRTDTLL

rats = settings: cited from earlier work
From the text: SEM is the standard error of the mean. || From the daily consumption of food observed in the DIO rats, the steep decrease around day 2 is a typical pattern observed with appetite-reducing agents in rodents.[31]

cCTR = assay: Species-specific cAMP assay, cCTR; settings: cAMP HTRF, transiently transfected BHK cells, 30 min room temperature, five experiments
cAMY1R = assay: Species-specific cAMP assay, cAMY1R; settings: cAMP HTRF, transiently transfected BHK cells, 30 min room temperature, five experiments
cAMY3R = assay: Species-specific cAMP assay, cAMY3R; settings: cAMP HTRF, transiently transfected BHK cells, 30 min room temperature, five experiments
[4] = single sc injection of 30 nmol/kg, published previously

- EC50 (hCTR; Tables S12 and S14, read-out: hCTR pEC50 (converted)): 0.692 nM
- EC50 (hCTR; BHK cells stably expressing hCTR and CRE-luciferase, 3 h, 37 °C, 10% FBS, read-out: hCTR EC50): 0.697 nM
- EC50 (rat AMY3R; Tables S12 and S14, read-out: rAMY3R pEC50 (converted)): 0.468 nM
- EC50 (rat AMY3R; transiently transfected BHK tk-ts 13 cells, FlashPlate, 30 min room temperature, 2% HSA, read-out: rAMY3R EC50): 0.463 nM
- ratio rCTR/rAMY3R (rat AMY3R; ratio of cAMP EC50 values): 31
- EC50 (rat CTR; Tables S12 and S14, read-out: rCTR pEC50 (converted)): 14.5 nM
- EC50 (rat CTR; transiently transfected BHK tk-ts 13 cells, FlashPlate, 30 min room temperature, 2% HSA, read-out: rCTR EC50): 14.3 nM
- solubility kinetic ([1]; bis-tris-propane buffer, pH 6, aqueous buffer): ≥ 200 µM
- solubility kinetic ([1]; bis-tris-propane buffer, pH 6.5, aqueous buffer): ≥ 200 µM
- solubility kinetic ([1]; bis-tris-propane buffer, pH 7, aqueous buffer): ≥ 200 µM
- solubility kinetic ([1]; bis-tris-propane buffer, pH 7.5, aqueous buffer): ≥ 200 µM
- solubility kinetic ([1]; bis-tris-propane buffer, pH 8, aqueous buffer): ≥ 200 µM
- solubility kinetic ([1]; lactate buffer, pH 4, aqueous buffer): ≥ 200 µM
- solubility kinetic ([1]; lactate buffer, pH 5, aqueous buffer): ≥ 200 µM
- ThT, pH 7.5 lag-time ([2]; 250 μM peptide, 10 mM HEPES pH 7.5, 1 μM ThT, 37 °C, 960 rpm, 45 h, lowest of four replicas, average of experiments): >45 h
- recovery ([2]; pH 7.5, residual dissolved peptide after 45 h of shaking, centrifugation and 0.22 μm filtration, HPLC, relative to amount before stress): 100%
- HMWP [3]: 7%
- EC50 (hAMY3R; Tables S12 and S14, read-out: hAMY3R pEC50 (converted)): 0.182 nM
- EC50 (hAMY3R; BHK cells stably expressing hCTR+RAMP3 and CRE-luciferase, 3 h, 37 °C, 10% FBS, read-out: hAMY3R EC50): 0.18 nM
- ratio hCTR/hAMY3R (hAMY3R; ratio of luciferase EC50 values): 3.9
SMILES: CC(C)C[C@H](NC(=O)[C@H](CCCNC(=N)N)NC(=O)[C@H](CCC(N)=O)NC(=O)[C@@H](NC(=O)[C@H](C)NC(=O)[C@@H]1CSSC[C@H](NC(=O)[C@@H](N)CCCCNC(=O)CC[C@H](NC(=O)CCCCCCCCCCCCCCCCCCC(=O)O)C(=O)O)C(=O)N[C@@H](CC(N)=O)C(=O)N[C@@H]([C@@H](C)O)C(=O)N[C@@H](C)C(=O)N[C@@H]([C@@H](C)O)C(=O)N1)[C@@H](C)O)C(=O)N[C@@H](C)C(=O)N[C@@H](CC(=O)O)C(=O)N[C@@H](Cc1ccccc1)C(=O)N[C@@H](CC(C)C)C(=O)N[C@@H](CCCNC(=N)N)C(=O)N[C@@H](Cc1c[nH]cn1)C(=O)N[C@@H](CO)C(=O)N[C@@H](CO)C(=O)N[C@@H](CCC(N)=O)C(=O)N[C@@H](CC(N)=O)C(=O)N[C@@H](Cc1ccccc1)C(=O)NCC(=O)N[C@@H](C)C(=O)N1CCC[C@H]1C(=O)N[C@@H](CC(C)C)C(=O)N[C@@H](CO)C(=O)N[C@@H](CO)C(=O)N[C@H](C(=O)N1CCC[C@H]1C(=O)N[C@H](C(=O)NCC(=O)N[C@@H](CO)C(=O)N[C@@H](CC(=O)O)C(=O)N[C@H](C(=O)N[C@@H](Cc1ccc(O)cc1)C(N)=O)[C@@H](C)O)C(C)C)[C@@H](C)O [Peptide 1] (H-K([γGlu-C20 diacid])CNTATCATQRLADFLRHSSQNFGAPLSSTPVGSDTY-NH2; disulfide 2-7)

SMILES: CC[C@H](C)[C@H](NC(=O)[C@@H]1CCCN1C(=O)CNC(=O)[C@H](Cc1ccccc1)NC(=O)[C@H](CC(N)=O)NC(=O)[C@H](CC(N)=O)NC(=O)[C@H](CO)NC(=O)[C@H](CO)NC(=O)[C@H](Cc1c[nH]cn1)NC(=O)[C@H](CCCNC(=N)N)NC(=O)[C@H](CC(C)C)NC(=O)[C@H](Cc1ccccc1)NC(=O)[C@H](CCC(=O)O)NC(=O)[C@H](C)NC(=O)[C@H](CC(C)C)NC(=O)[C@H](CCCNC(=N)N)NC(=O)[C@H](CCC(N)=O)NC(=O)[C@@H](NC(=O)[C@H](C)NC(=O)[C@@H]1CSSC[C@H](NC(=O)[C@H](CCCCN)NC(=O)CC[C@H](NC(=O)CCCCCCCCCCCCCCCCCCC(=O)O)C(=O)O)C(=O)N[C@@H](CC(N)=O)C(=O)N[C@@H]([C@@H](C)O)C(=O)N[C@@H](C)C(=O)N[C@@H]([C@@H](C)O)C(=O)N1)[C@@H](C)O)C(=O)N[C@@H](CC(C)C)C(=O)N1CCC[C@H]1C(=O)N1CCC[C@H]1C(=O)N[C@H](C(=O)N[C@@H](CC(N)=O)C(=O)N[C@H](C(=O)NCC(=O)N[C@@H](CO)C(=O)N[C@@H](CC(N)=O)C(=O)N[C@H](C(=O)N1CCC[C@H]1C(N)=O)[C@@H](C)O)C(C)C)[C@@H](C)O [cagrilintide]
- reduction in food intake in rats (rats): 45%
- reduction of food intake 0−24 h (rats; [4]): 85%
- reduction of food intake 24–48 h (rats; [4]): 84%

SMILES: CC(C)C[C@H](NC(=O)[C@H](CCCCN)NC(=O)CNC(=O)[C@H](CC(C)C)NC(=O)[C@@H](NC(=O)[C@@H]1CSSC[C@H](N)C(=O)N[C@@H](CO)C(=O)N[C@@H](CC(N)=O)C(=O)N[C@@H](CC(C)C)C(=O)N[C@@H](CO)C(=O)N[C@@H]([C@@H](C)O)C(=O)N1)C(C)C)C(=O)N[C@@H](CO)C(=O)N[C@@H](CCC(N)=O)C(=O)N[C@@H](CCC(=O)O)C(=O)N[C@@H](CC(C)C)C(=O)N[C@@H](Cc1c[nH]cn1)C(=O)N[C@@H](CCCCN)C(=O)N[C@@H](CC(C)C)C(=O)N[C@@H](CCC(N)=O)C(=O)N[C@H](C(=O)N[C@@H](Cc1ccc(O)cc1)C(=O)N1CCC[C@H]1C(=O)N[C@@H](CCCNC(=N)N)C(=O)N[C@H](C(=O)N[C@@H](CC(N)=O)C(=O)N[C@H](C(=O)NCC(=O)N[C@@H](CO)C(=O)NCC(=O)N[C@H](C(=O)N1CCC[C@H]1C(N)=O)[C@@H](C)O)[C@@H](C)O)[C@@H](C)O)[C@@H](C)O [sCT, salmon calcitonin, reference compound]
- cCTR pEC50 (cCTR): 11.27
- cAMY1R pEC50 (cAMY1R): 10.61
- cAMY3R pEC50 (cAMY3R): 11.16
